Experiments:
Type in all cases: biochemical
PRMT1 [1] = molecular target: T1, PRMT1 (Homo sapiens, UniProt Q99873); assay: SAHH-coupled fluorescence assay, inhibition of PRMT1
T1 construct: made in house
How it was run: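 PRMT1 (0.1 μM) was run with 10 μM AdoMet, 5 μM SAHH and 10 μM ThioGlo4 in 2.5 mM HEPES pH 7.0, 25 mM NaCl, 25 μM EDTA, 50 μM TCEP and 0.01% Triton X-100. Fluorescence (ex 400/em 465 nm) was monitored for 15 min. Assays were done in duplicate.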

PRMT1 [2] = molecular target: T1, PRMT1; assay: selectivity of YD1113/YD1290 on PRMT panel, PRMT1
Method: (§1) The selectivity of compounds YD1113 and YD1290 on PRMTs were performed by Reaction Biology Corp.
(§2) Next, the selectivity of YD1113 was investigated on a panel of PRMTs at 10 μM.
(§3) After validating the benzyl urea moiety as an unconventional homocysteine mimic of SAH for PRMTs, it was hypothesized that incorporating the benzyl urea moiety into the original pan PRMT inhibitor II757 would build a potent bisubstrate inhibitor. […] To enable a stable tri-substitution, the sulfur atom with a nitrogen atom was replaced. YD1290 was synthesized following the reported methods 9, 15 and tested in a radioactivity assay for PRMTs (FIG. 6b).

PRMT3 [3] = assay: selectivity of YD1113/YD1290 on PRMT panel, PRMT3
Method: as §1, §2, §3

PRMT4 [4] = assay: selectivity of YD1113/YD1290 on PRMT panel, PRMT4
Method: as §1, §2, §3

PRMT5 = PRMT5 (Homo sapiens, UniProt O14744); assay: selectivity of YD1113 on PRMT panel, PRMT5; conditions: read-out: IC50 (nM) | PRMT5
PRMT5, sequence (O14744 whole entry, species assumed): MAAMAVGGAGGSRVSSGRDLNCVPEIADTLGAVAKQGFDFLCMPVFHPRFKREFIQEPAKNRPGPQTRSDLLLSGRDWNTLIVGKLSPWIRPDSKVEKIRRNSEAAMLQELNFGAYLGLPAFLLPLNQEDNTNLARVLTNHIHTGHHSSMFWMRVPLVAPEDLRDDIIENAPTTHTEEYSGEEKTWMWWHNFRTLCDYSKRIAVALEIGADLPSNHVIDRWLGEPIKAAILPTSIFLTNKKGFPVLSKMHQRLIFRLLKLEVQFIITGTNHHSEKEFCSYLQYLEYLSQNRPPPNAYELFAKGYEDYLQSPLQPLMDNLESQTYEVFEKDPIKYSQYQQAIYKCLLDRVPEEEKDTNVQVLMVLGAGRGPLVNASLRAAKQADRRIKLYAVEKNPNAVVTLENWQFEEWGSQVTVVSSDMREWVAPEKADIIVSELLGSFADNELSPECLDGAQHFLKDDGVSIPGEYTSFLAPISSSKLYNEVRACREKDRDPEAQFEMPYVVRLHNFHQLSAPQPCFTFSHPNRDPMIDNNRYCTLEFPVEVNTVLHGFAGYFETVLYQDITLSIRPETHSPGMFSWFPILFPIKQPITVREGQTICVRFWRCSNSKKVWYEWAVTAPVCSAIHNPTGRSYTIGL
PRMT5, sequence (Q9BQA1 whole entry partner, species assumed): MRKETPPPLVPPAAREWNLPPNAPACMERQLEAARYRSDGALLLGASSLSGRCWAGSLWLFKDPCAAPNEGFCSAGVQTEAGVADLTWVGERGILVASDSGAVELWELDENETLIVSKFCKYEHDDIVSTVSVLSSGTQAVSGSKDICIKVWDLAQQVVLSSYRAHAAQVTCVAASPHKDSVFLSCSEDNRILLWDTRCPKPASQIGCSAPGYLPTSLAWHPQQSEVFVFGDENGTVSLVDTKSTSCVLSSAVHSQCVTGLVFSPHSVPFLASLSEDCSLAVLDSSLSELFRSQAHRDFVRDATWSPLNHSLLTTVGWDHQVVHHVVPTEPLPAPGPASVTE
Method: as §1, §2

PRMT6 [5] = molecular target: T2, PRMT6 (Homo sapiens, UniProt Q96LA8); assay: selectivity of YD1113/YD1290 on PRMT panel, PRMT6
T2 sequence (Q96LA8 whole entry, species assumed): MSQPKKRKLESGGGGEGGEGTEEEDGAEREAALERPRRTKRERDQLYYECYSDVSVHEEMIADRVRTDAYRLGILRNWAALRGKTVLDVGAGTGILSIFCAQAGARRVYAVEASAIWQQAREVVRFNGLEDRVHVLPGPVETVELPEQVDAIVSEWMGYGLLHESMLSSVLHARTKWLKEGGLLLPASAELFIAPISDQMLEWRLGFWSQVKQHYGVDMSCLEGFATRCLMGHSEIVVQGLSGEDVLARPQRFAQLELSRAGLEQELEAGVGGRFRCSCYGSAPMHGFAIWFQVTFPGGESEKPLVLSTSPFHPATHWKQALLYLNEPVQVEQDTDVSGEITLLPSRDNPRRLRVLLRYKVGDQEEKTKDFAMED
Method: as §1, §2, §3

PRMT7 = assay: selectivity of YD1113 on PRMT panel, PRMT7
Method: as §1, §2

PRMT8 [6] = molecular target: T3, PRMT8 (Homo sapiens, UniProt Q9NR22); assay: selectivity of YD1113/YD1290 on PRMT panel, PRMT8
T3 sequence (Q9NR22 whole entry, species assumed): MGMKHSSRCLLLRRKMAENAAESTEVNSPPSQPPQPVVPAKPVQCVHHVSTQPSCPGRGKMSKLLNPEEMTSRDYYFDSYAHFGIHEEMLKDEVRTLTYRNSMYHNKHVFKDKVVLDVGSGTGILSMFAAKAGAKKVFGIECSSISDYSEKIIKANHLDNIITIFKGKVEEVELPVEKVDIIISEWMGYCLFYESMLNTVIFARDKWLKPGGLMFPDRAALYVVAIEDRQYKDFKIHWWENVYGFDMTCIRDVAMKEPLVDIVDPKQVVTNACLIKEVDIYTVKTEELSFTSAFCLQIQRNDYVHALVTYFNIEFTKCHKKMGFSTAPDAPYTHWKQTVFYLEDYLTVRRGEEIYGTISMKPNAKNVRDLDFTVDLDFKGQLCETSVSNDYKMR
Method: as §1, §2, §3

PRMT3 [7] = assay: SAHH-coupled fluorescence assay, inhibition of PRMT3
Method: A fluorescence-based SAHH-coupled assay was applied to study the inhibition activity of all synthesized compounds on PRMT 1 and 3.
(§4) The PRMT3 methylation assay was performed under the following conditions in a final well volume of 100 μL: 20 mM Tris (pH=7.5), 0.01% Triton X-100, 5 μM SAHH, 0.25 μM PRMT3, 30 μM AdoMet, and 15 μM ThioGlo4. […] Fluorescence was monitored on a BMG CLARIOstar microplate reader with excitation 380 nm and emission 505 nm. Data were processed by using GraphPad Prism software 8.0. All experiments were performed in duplicate.
(§5) Next, the inhibition activity of the library was investigated for five PRMT members from type I PRMTs.
as §4, with “8.0.” for “8.0. All experiments were performed in duplicate.”

PRMT4 [8] = molecular target: T4, PRMT4 (Homo sapiens, UniProt Q86X55); assay: radioactive assay (Reaction Biology Corp.), inhibition of PRMT4
T4 sequence (Q86X55 1-608): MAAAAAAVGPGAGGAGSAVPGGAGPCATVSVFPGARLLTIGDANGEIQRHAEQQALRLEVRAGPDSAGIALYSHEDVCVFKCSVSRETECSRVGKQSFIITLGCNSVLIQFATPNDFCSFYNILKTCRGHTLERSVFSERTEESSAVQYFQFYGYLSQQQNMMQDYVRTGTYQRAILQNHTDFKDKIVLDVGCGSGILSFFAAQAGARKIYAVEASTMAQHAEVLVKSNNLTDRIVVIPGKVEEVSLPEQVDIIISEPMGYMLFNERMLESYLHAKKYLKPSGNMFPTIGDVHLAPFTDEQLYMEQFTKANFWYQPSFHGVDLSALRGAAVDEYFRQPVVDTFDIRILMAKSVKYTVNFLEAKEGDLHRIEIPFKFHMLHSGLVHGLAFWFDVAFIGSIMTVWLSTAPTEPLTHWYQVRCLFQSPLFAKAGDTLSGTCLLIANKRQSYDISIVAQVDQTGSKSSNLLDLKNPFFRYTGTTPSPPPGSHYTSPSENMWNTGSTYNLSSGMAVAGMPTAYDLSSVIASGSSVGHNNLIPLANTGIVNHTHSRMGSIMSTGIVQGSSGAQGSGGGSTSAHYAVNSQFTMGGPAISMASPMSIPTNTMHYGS
Method: as §5
(§6) The PRMT 4, 6 and 8 methylation assays were performed by Reaction Biology corp.

PRMT6 [9] = molecular target: T2, PRMT6; assay: radioactive assay (Reaction Biology Corp.), inhibition of PRMT6; conditions: for PRMT6 inhibition: 10 μM
Method: as §5, §6

PRMT8 [10] = molecular target: T3, PRMT8; assay: radioactive assay (Reaction Biology Corp.), inhibition of PRMT8
Method: as §5, §6

PRMT3 [11] = molecular target: PRMT3 (Homo sapiens, UniProt O60678); assay: SAHH-coupled fluorescence assay, inhibition of PRMT3; set-up: PRMT3 (residues 211-531) was cloned into the pET28a-MHL expression vector; tag of the pET28a-MHL vector (not described); made in house; host or cells: Escherichia coli BL21(DE3)
PRMT3 (Homo sapiens, UniProt O60678), sequence (O60678 211-531): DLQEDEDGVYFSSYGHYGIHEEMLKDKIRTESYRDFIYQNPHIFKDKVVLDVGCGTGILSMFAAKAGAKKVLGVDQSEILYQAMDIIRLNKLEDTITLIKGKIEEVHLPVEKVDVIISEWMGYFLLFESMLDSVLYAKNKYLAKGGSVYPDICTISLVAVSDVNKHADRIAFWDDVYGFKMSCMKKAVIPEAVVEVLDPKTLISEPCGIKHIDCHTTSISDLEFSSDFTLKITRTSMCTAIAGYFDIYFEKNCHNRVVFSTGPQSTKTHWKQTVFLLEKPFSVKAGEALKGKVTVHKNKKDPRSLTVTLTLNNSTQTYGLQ
How it was run: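 Coupled SAHH/ThioGlo4 fluorescence read-out (ex 380 nm, em 505 nm) of PRMT3 (0.25 μM) methylation with 30 μM AdoMet and 5 μM SAHH. Buffer was 20 mM Tris pH 7.5 with 0.01% Triton X-100. Run in duplicate.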

PRMT4 [12] = assay: radioactive assay (Reaction Biology Corp.), inhibition of PRMT4
Method: as §5, §6

T1 sequence (Q99873 whole entry, species assumed): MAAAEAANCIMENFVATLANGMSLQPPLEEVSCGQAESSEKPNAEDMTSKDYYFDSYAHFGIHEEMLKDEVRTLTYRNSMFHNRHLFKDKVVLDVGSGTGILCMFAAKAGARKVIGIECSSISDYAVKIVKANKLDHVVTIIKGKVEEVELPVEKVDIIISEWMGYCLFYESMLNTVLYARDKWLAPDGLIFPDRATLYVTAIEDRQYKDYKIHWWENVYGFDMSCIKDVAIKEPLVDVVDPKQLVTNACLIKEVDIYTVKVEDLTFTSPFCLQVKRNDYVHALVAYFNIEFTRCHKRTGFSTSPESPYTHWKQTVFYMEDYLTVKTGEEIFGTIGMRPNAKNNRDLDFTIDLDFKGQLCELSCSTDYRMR

Structure (SMILES)	inhibition at 10 µM (PRMT1 [1])	inhibition at 10 µM (PRMT4 [8])	inhibition at 10 µM (PRMT6 [9])	inhibition at 10 µM (PRMT8 [10])	inhibition at 10 µM (PRMT3 [11])	IC50 (PRMT3 [7]; read-out: IC50 [µM] | PRMT3)	IC50 (PRMT4 [12])	other results
N=C(NCCCSC[C@H]1O[C@@H](n2cnc3c(NCC#Cc4ccc(O)cc4)ncnc32)C(O)[C@H]1O)Nc1cccc(Br)c1 (stereo in doubt) [YD1-250]	–	–	–	–	–	–	–	PRMT1 inhibition (PRMT1 [1]): PRMT1 inhibitors; IC50 (PRMT1 [2]): 7.6 nM; IC50 (PRMT3 [3]): 1640 nM; IC50 (PRMT4 [4]): 203 nM; IC50 (PRMT5): 136 nM; IC50 (PRMT6 [5]): 44 nM; IC50 (PRMT7): 2640 nM; IC50 (PRMT8 [6]): 38 nM
N=C(NCCCSC[C@H]1O[C@@H](n2cnc3c(NCc4cn(Cc5ccccc5)nn4)ncnc32)C(O)[C@H]1O)Nc1cccc(Br)c1 (stereo in doubt) [YD1-254]	–	–	–	–	–	–	–	PRMT1 inhibition (PRMT1 [1]): PRMT1 inhibitors; IC50 (PRMT1 [2]): 14 nM; IC50 (PRMT3 [3]): 3620 nM; IC50 (PRMT4 [4]): 1680 nM; IC50 (PRMT5): 1790 nM; IC50 (PRMT6 [5]): 25 nM; IC50 (PRMT7): > 30000 nM; IC50 (PRMT8 [6]): 40 nM
N=C(NCCCSC[C@H]1O[C@@H](n2cnc3c(N)ncnc32)[C@H](O)[C@@H]1O)Nc1cccc(-c2cncnc2)c1 [Compound 6o]	102%	100%	96%	95%	5%	–	–	IC50 (PRMT1 [1]; read-out: IC50[μM] | PRMT1): 0.45 ± 0.11 µM; IC50 (PRMT3 [7]; read-out: IC50[μM] | PRMT3): 25 ± 5 µM
Nc1ncnc2c1ncn2[C@@H]1O[C@H](CSCCNC(=O)NCc2ccc(F)cc2)[C@@H](O)[C@H]1O [Compound 7d, 1-(2-((((2S,3S,4R,5R)-5-(6-amino-9H-purin-9-yl)-3,4-dihydroxytetrahydrofuran-2-yl)methyl)thio)ethyl)-3-(4-fluorobenzyl)urea]	6%	95%	25%	8%	62%	5.9 ± 1.4 µM	0.27 ± 0.06 µM	PRMT6 inhibition (PRMT6 [9]): inactive to PRMT6; fold reduction of PRMT3 inhibition vs YD1113 (PRMT3 [11]): over 10 fold
Nc1ncnc2c1ncn2[C@@H]1O[C@H](CSCCNC(=O)Nc2ccccc2)[C@@H](O)[C@H]1O [Compound 7f, 1-(2-((((2S,3S,4R,5R)-5-(6-amino-9H-purin-9-yl)-3,4-dihydroxytetrahydrofuran-2-yl)methyl)thio)ethyl)-3-phenylurea]	9%	84%	28%	12%	86%	1.9 ± 0.12 µM	–	PRMT6 inhibition (PRMT6 [9]): inactive to PRMT6; fold reduction of PRMT3 inhibition vs YD1113 (PRMT3 [11]): 4 fold
Nc1ncnc2c1ncn2[C@@H]1O[C@H](CSCCNC(=O)NCc2ccccc2Br)[C@@H](O)[C@H]1O [Compound 7h]	12%	96%	-11%	-13%	25%	–	0.021 ± 0.0028 µM	–
Nc1ncnc2c1ncn2[C@@H]1O[C@H](CSCCNC(=O)Nc2ccc(F)cc2)[C@@H](O)[C@H]1O [Compound 7j, 1-(2-((((2S,3S,4R,5R)-5-(6-amino-9H-purin-9-yl)-3,4-dihydroxytetrahydrofuran-2-yl)methyl)thio)ethyl)-3-(4-fluorophenyl)urea]	17%	88%	17%	1%	78%	2 ± 0.23 µM	–	PRMT6 inhibition (PRMT6 [9]): inactive to PRMT6; fold reduction of PRMT3 inhibition vs YD1113 (PRMT3 [11]): 4 fold
Nc1ncnc2c1ncn2[C@@H]1O[C@H](CSCCNC(=O)Nc2ccc(Cl)cc2)[C@@H](O)[C@H]1O [Compound 7k, 1-(2-((((2S,3S,4R,5R)-5-(6-amino-9H-purin-9-yl)-3,4-dihydroxytetrahydrofuran-2-yl)methyl)thio)ethyl)-3-(4-chlorophenyl)urea]	7%	67%	2%	-1%	30%	22 ± 2.9 µM	–	fold reduction of PRMT3 inhibition vs 1i (PRMT3 [11]; vs 1i): 10 fold
Nc1ncnc2c1ncn2[C@@H]1O[C@H](CSCCNC(=O)Nc2cccc3ccccc23)[C@@H](O)[C@H]1O [Compound 7l, 1-(2-((((2S,3S,4R,5R)-5-(6-amino-9H-purin-9-yl)-3,4-dihydroxytetrahydrofuran-2-yl)methyl)thio)ethyl)-3-(naphthalen-1-yl)urea]	13%	88%	2%	5%	1%	81 ± 17 µM	0.47 ± 0.12 µM	fold reduction of PRMT3 inhibition vs 1h (PRMT3 [11]; vs phenyl (1h)): over 40 fold
Nc1ncnc2c1ncn2[C@@H]1O[C@H](CSCCCNC(=O)NCc2ccccc2)[C@@H](O)[C@H]1O [Compound 7p, 1-(3-((((2S,3S,4R,5R)-5-(6-amino-9H-purin-9-yl)-3,4-dihydroxytetrahydrofuran-2-yl)methyl)thio)propyl)-3-benzylurea]	7%	76%	67%	12%	13%	70 ± 11 µM	3.6 ± 0.42 µM	inhibition at 70 µM (PRMT3 [11]; 70 μM): 50%
Nc1ncnc2c1ncn2[C@@H]1O[C@H](CSCCNCc2cccc(-c3ccoc3)c2)[C@@H](O)[C@H]1O [Compound 10d]	14%	100%	46%	44%	1%	–	1.2 ± 0.18 µM	–
Nc1ncnc2c1ncn2[C@@H]1O[C@H](CSCCNCc2cccc(-c3cncnc3)c2)[C@@H](O)[C@H]1O [Compound 10g]	5%	98%	31%	36%	13%	–	9.3 ± 1.1 µM	–
Nc1ncnc2c1ncn2[C@@H]1O[C@H](CSCCCNCc2cccc(-c3cncnc3)c2)[C@@H](O)[C@H]1O [Compound 10s]	28%	97%	65%	39%	24%	–	49 ± 5.7 µM	–
N=C(NCCCSC[C@H]1O[C@@H](n2cnc3c(NCC#Cc4ccccc4)ncnc32)[C@H](O)[C@@H]1O)Nc1cccc(Br)c1 [YD1-248]	–	–	–	–	–	–	–	PRMT1 inhibition (PRMT1 [1]): PRMT1 inhibitors; IC50 (PRMT1 [2]): 3.35 nM; IC50 (PRMT3 [3]): 2370 nM; IC50 (PRMT4 [4]): 2760 nM; IC50 (PRMT5): 1380 nM; IC50 (PRMT6 [5]): 25 nM; IC50 (PRMT7): 5570 nM; IC50 (PRMT8 [6]): 24 nM
